From PMC7177849, “Gut Microbial Catabolites of Tryptophan Are Ligands and Agonists of the Aryl Hydrocarbon Receptor: A Detailed Characterization” (International Journal of Molecular Sciences, 2020)

Assays:
AhR = target: T1, AhR (Homo sapiens, UniProt P35869); assay: Summary of AhR cell functions (translocation; heterodimerization; DNA-binding) in LS180 cells; type: cell-based; parameters: 0.1% V/V), TCDD (10 nM), and test MICT; host or cells: LS180 cells; details: Table 1 summary class
T1 sequence (P35869 11-848): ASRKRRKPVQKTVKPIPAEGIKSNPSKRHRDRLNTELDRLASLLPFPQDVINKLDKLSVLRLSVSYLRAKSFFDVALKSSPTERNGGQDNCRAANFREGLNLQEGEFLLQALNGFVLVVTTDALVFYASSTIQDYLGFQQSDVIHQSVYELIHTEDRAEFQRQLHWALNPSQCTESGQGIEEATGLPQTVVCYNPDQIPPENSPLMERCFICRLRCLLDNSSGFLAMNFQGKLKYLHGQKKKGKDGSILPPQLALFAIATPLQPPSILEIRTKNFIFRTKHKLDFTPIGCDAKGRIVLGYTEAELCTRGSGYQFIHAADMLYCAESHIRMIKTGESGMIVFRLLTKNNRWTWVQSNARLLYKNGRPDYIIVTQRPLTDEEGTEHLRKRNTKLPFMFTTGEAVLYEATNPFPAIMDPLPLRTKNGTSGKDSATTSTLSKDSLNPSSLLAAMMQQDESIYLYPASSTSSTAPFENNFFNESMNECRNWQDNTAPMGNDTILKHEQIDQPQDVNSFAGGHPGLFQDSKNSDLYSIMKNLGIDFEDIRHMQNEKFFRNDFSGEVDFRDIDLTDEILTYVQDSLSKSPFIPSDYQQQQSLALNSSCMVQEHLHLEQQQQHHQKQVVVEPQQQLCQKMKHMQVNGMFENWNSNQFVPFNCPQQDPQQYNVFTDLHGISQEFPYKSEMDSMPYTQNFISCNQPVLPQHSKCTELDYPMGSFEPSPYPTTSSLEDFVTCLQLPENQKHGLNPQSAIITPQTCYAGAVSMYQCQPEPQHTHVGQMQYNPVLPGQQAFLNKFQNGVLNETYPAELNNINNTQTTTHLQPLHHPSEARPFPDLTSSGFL
Description: LS180 cells (60,000 cells/well) were plated on 8-well chambered slides (94.6140.802, Sarstedt, Nümbrecht, Germany) and allowed to grow overnight. Then, the cells were incubated with DMSO (0.1% V/V), TCDD (10 nM), IND (1000 µM), IPY (200 µM), 3MI (200 µM), TA (200 µM), IAC (100 µM), and IAD (200 µM). The staining procedure was described in detail elsewhere. The images were captured using an IX73 fluorescence microscope (Olympus, Tokyo, Japan). The immunofluorescence signal intensity (of the AhR antibody) in the nucleus was evaluated visually. For percentage calculation, approximately 500 cells from at least four randomly selected fields of view in each specimen were used.
LS180 cells (4 million) were seeded in a 60-mm dish in Dulbecco’s modified Eagle’s medium (D6546; Sigma Aldrich). The following day, the cells were incubated with DMSO (0.1% V/V), TCDD (10 nM), IND (1000 µM), IPY (200 µM), 3MI (200 µM), TA (200 µM), IAC (100 µM), and IAD (200 µM) for 90 min at 37 °C. ChIP assay was performed as we described in detail elsewhere.
Intestinal LS180 cells were incubated with TCDD, tested MICT, and vehicle (DMSO; 0.1% V/V) for 90 min at 37 °C. The Pierce™ Co-Immunoprecipitation Kit (Thermo Fisher Scientific) with covalently coupled AhR antibody (mouse monoclonal, sc-133088, A-3, Santa Cruz Biotechnology) was used. Eluted protein complexes and total parental lysates were resolved on SDS-PAGE gels followed by Western Blot analysis and immuno-detection with ARNT-1 antibody (mouse monoclonal, sc-17812, G-3, Santa Cruz Biotechnology). Chemiluminescent detection was performed using horseradish peroxidase-conjugated anti-mouse secondary antibody (7076S, Cell Signaling Technology) and WesternSure® PREMIUM Chemiluminescent Substrate (LI-COR Biotechnology) by C-DiGit® Blot Scanner (LI-COR Biotechnology).

CYP1A1 mRNA = assay: Summary of CYP1A1 gene expression in human hepatic and intestinal cells; type: cell-based; details: Table 1 summary class; CYP1A1
Description: Figure 4 Effects of MICT on the induction of CYP1A1 mRNA in human hepatic and intestinal cells. Cultured cells were incubated for 24 h with the vehicle (DMSO; 0.1% v/v) and tested MICT in the presence or absence of TCDD (10 nM). RT-PCR determined the level of CYP1A1 mRNA, and the data were normalized per GAPDH mRNA level. […] (A,B) Experiments in three consecutive passages of human colon adenocarcinoma cell line LS180 in the absence (A) and the presence (B) of 10 nM TCDD. The bar graphs show the percentage of maximal induction attained by TCDD and are expressed as the mean ± SD. (C) Experiments in three consecutive passages of wild-type (AhR^+/^+) and AhR-knockout (AhR^−/^−) HT-29 cells. […] (D) Primary human hepatocytes from three different donors (LH79, Hep2201020, and Hep2201021).
Total RNA was isolated using TRI Reagent® (Sigma Aldrich, Prague, Czech Republic). cDNA was synthesized using M-MuLV reverse transcriptase (New England Biolabs, Ipswich, MA, USA). The reverse transcription was performed at 42 °C for 60 min using Random Primers 6 (New England Biolabs, Ipswich, MA, USA) and diluted in a 1:4 ratio by PCR-grade water. The quantitative reverse transcriptase-polymerase chain reaction (qRT-PCR) was performed on the Lightcycler 480 II using the LightCycler ® 480 Probes Master (Roche Diagnostic Corporation, Prague, Czech Republic). The levels of CYP1A1 and GAPDH mRNAs were determined using the Universal Probe Library probes (UPL; Roche Diagnostic Corporation, Prague, Czech Republic) in combination with specific primers, using a protocol described elsewhere. All measurements were performed in triplicates, and the gene expression was normalized to glyceraldehyde-3-phosphate dehydrogenase (GAPDH) as a house-keeping gene. The data were processed using the delta-delta Ct method and expressed as a fold induction over the negative control (DMSO) or as a percentage of the positive control (maximal induction by TCDD).

Row | SMILES | AhR Cell Functions (Translocation); Heterodimerization; DNA-Binding (AhR) | Gene Expression (CYP1A1 mRNA)
1 | c1ccc2[nH]ccc2c1 [IND, indole] | highly active–all parameters | strong inducer
2 | O=C(O)/C=C/c1c[nH]c2ccccc12 [IAC, indole-3-acrylate] | highly active–all parameters | strong inducer
3 | NC(=O)Cc1c[nH]c2ccccc12 [IAD, indole-3-acetamide] | highly active–all parameters | strong inducer
4 | Cc1c[nH]c2ccccc12 [3MI, skatole] | highly active–all parameters | strong inducer
5 | O=C(O)C(=O)Cc1c[nH]c2ccccc12 [IPY, indole-3-pyruvate] | highly active–all parameters | strong inducer
6 | OCCc1c[nH]c2ccccc12 [IET, indole-3-ethanol] | – | inactive
7 | O=Cc1c[nH]c2ccccc12 [IA, indole-3-aldehyde] | – | inactive
8 | NCCc1c[nH]c2ccccc12 [TA, tryptamine] | highly active–all parameters | strong inducer
9 | O=C(O)C(O)Cc1c[nH]c2ccccc12 (stereo not drawn) [ILA, indole-3-lactate] | – | inactive
